US20110112121A1, “Pharmaceutical Compositions and Solid Forms” (priority 2009, published 2011)
Values joined by “and” are separate entries in the source; they are usually repeats but may differ in a detail not shown here. Equal values may be shown once.

Experiments:
dermal angiogenesis = assay: Matrigel assay in domestic pigs; format: in vivo
Method: (§1) Vascular endothelial growth factors (VEGFs) have angiogenic and vascular permeability-promoting activities in vitro and in vivo. […] Young domestic pigs were used because pig skin is very similar to human skin in architecture and permeability for xenobiotics. Inhibition of dermal angiogenesis related to the agent of the invention was tested with an “matrigel” assay which was developed for studies in pigs; inhibition of vascular permeability in the skin with a modified Miles assay. With matrigel implants into which endothelial cells immigrate to form new vessels anti-angiogenic effects of applied test articles can be assessed in vivo; with the Miles assay, extravasation of Evans blue-labeled albumin is measured after VEGF-induced vascular leakage.
Method: Test areas on both paramedian ventral abdominal sides of 16-18 kg weighing domestic pigs were topically treated with 0.5% 6-(6-hydroxymethyl-pyrimidin-4-yloxy)-naphthalene-1-carboxylic acid (3-trifluoromethyl-phenyl)-amide or the vehicle (ethanol/propylene glycol 3/7) alone. Treatment was performed twice daily on days 1-4. On day 2, 100 μl matrigel, loaded with the angiogenic factors […] VEGF-165 and 40 U/ml heparin were injected intradermally at 10 different sites of the treated areas. On day 5, the animals were sacrificed and 8 mm punches from the injection sites collected, the subcutaneous fatty tissue removed, the hemorrhagic plugs carefully dissected and weighed. Thereafter, the samples were digested with dispase and single cell suspensions prepared. The isolated cells were stained with the endothelial cell marker CD31 or isotype controls and analyzed with FACS after gating for endothelial cells.

[1] = tested on: VEGF-induced extravasation; assay: Miles assay in domestic pigs; format: in vivo
Method: as §1
Method: Test areas of 5×20 cm on both paramedian ventral abdominal sides of 16-18 kg weighing domestic pigs were topically treated with 1 ml of 0.8% 6-(6-hydroxymethyl-pyrimidin-4-yloxy)-naphthalene-1-carboxylic acid (3-trifluoromethyl-phenyl)-amide trice (30, 7 and 3 hrs prior to elicitation of vascular leakage with VEGF). […] Evans blue was extracted from the biopsies with 0.5 ml formamide and the concentration of Evans blue in the supernatants was measured photometrically. […]

[2] = Solubility of the agent in hydrophilic and hydrophobic media; format: physicochemical; settings: hydrophilic and hydrophobic media (aqueous and oily media)
[3] = Stability of crystal forms under ambient conditions; format: physicochemical
[4] = 0.5% in ethanol:propylene glycol 3/7, topical twice daily days 1-4, plugs excised day 5

| solubility properties (in words) [2] | stability of the modification (in words) [3] | Compound | difference in CD31+ cell number vs vehicle-treated sites (dermal angiogenesis; 0.5% epicutaneously, gated on endothelial cells) | plug weight less than vehicle-treated sites (dermal angiogenesis; 0.5% epicutaneously, vs vehicle) | Cell counts (CD31+)/μl, gated on endothelial cells (dermal angiogenesis; [4]) | Weight (mg) of excised plugs (dermal angiogenesis; [4]) | inhibition of VEGF-induced extravasation ([1]; 0.8% agent topically 30, 7 and 3 hrs before VEGF 165, vs placebo) | Evans blue concentration (μg/ml tissue extract) ([1]; 0.8% agent, 1 ml topically 30, 7 and 3 hrs before VEGF 165 injection, biopsies 30 min after challenge) |
| --- | --- | --- | --- | --- | --- | --- | --- | --- |
| very poor solubility properties | – | O=C(Nc1cccc(C(F)(F)F)c1)c1cccc2cc(Oc3cc(CO)ncn3)ccc12 [agent of the invention, 6-(6-hydroxymethyl-pyrimidin-4-yloxy)-naphthalene-1-carboxylic acid (3-trifluoromethyl-phenyl)-amide] | 66% | 19% | 353 µL⁻¹ | 88 mg and 87.8 mg | 24% | 1.26 (0.13)++ μg/ml tissue extract |
| – | particularly stable modification | O.O=C(Nc1cccc(C(F)(F)F)c1)c1cccc2cc(Oc3cc(CO)ncn3)ccc12.O=C(Nc1cccc(C(F)(F)F)c1)c1cccc2cc(Oc3cc(CO)ncn3)ccc12 [Crystal form B, 6-(6-Hydroxymethyl-pyrimidin-4-yloxy)-naphthalene-1-carboxylic acid (3-trifluoromethyl-phenyl)-amide hemihydrate, modification B] | – | – | – | – | – | – |
